Data reported in PubChem BioAssay AID180 (DTP/NCI, 2004).
“And” between values parts separate entries of the source, which are not always exact repeats. Equal entries are not always repeated.

System: BDF1 mice, Adenocarcinoma 755 s.c., tumor weight T/C
Assay: NCI In Vivo Anticancer Drug Screen. Data for tumor model Adenocarcinoma 755 (subcutaneous) in B6D2F1 (BDF1) mice
Conditions: endpoint: mean tumor weight, higher = larger tumour
Method in brief: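 In vivo antitumor screen on a transplantable tumor line. Result equals the measure in compound-treated animals divided by the same measure in vehicle controls.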

[1] = dose: 30.0 mg/kg/injection, schedule: Q01DX011 (ip), vehicle: saline
[2] = dose: 120.0 mg/kg/injection, schedule: Q01DX011 (ip), vehicle: saline
[3] = dose: 240.0 mg/kg/injection, schedule: Q01DX011 (ip), vehicle: saline

CC(C)OC(=O)C1(N)CCCC1
T/C (dose: 3.5 mg/kg/injection, schedule: Q01DX011 (ip), vehicle: carboxymethylcellulose (CMC)): 43 % of control | T/C (dose: 7.0 mg/kg/injection, schedule: Q01DX011 (ip), vehicle: carboxymethylcellulose (CMC)): 55 % of control | T/C (dose: 7.0 mg/kg/injection, schedule: Q01DX011 (ip), vehicle: saline): 95 % of control | T/C (dose: 14.0 mg/kg/injection, schedule: Q01DX011 (ip), vehicle: carboxymethylcellulose (CMC)): 55 % of control | T/C (dose: 14.0 mg/kg/injection, schedule: Q01DX011 (ip), vehicle: saline): 96 % of control | T/C (dose: 28.0 mg/kg/injection, schedule: Q01DX011 (ip), vehicle: saline): 34 % of control and 58 % of control | T/C (dose: 56.0 mg/kg/injection, schedule: Q01DX011 (ip), vehicle: carboxymethylcellulose (CMC)): 42 % of control | T/C (dose: 113.0 mg/kg/injection, schedule: Q01DX011 (ip), vehicle: saline): 6 % of control | T/C (dose: 120.0 mg/kg/injection, schedule: Q01DX011 (ip), vehicle: other): 10 % of control

NC(=O)N(CCCl)N=O
T/C (dose: 0.23 mg/kg/injection, schedule: Q01DX011 (ip), vehicle: methylcellulose (MC)): 54 % of control and 59 % of control | T/C (dose: 0.9 mg/kg/injection, schedule: Q01DX011 (ip), vehicle: methylcellulose (MC)): 34 % of control and 38 % of control | T/C (dose: 1.8 mg/kg/injection, schedule: Q01DX011 (ip), vehicle: methylcellulose (MC)): 27 % of control

C[C@@H]1C[C@@H]([C@H](O)CC2CC(=O)NC(=O)C2)C(=O)[C@@H](C)C1
T/C (dose: 5.0 mg/kg/injection, schedule: Q#A X022 (ip), vehicle: alkali diluted with saline): 103 % of control | T/C (dose: 6.63 mg/kg/injection, schedule: Q01DX011 (ip), vehicle: carboxymethylcellulose (CMC)): 51 % of control | T/C (dose: 7.5 mg/kg/injection, schedule: Q01DX011 (ip), vehicle: methylcellulose (MC)): 89 % of control | T/C (dose: 8.63 mg/kg/injection, schedule: Q01DX011 (ip), vehicle: carboxymethylcellulose (CMC)): 87 % of control | T/C (dose: 9.5 mg/kg/injection, schedule: Q01DX011 (ip), vehicle: carboxymethylcellulose (CMC)): 103 % of control and 117 % of control | T/C (dose: 10.0 mg/kg/injection, schedule: Q01DX011 (im), vehicle: alkali diluted with saline): 79 % of control | T/C (dose: 10.0 mg/kg/injection, schedule: Q01DX011 (ip), vehicle: alkali diluted with saline): 66 % of control and 75 % of control | T/C (dose: 10.0 mg/kg/injection, schedule: Q01DX011 (oral), vehicle: alkali diluted with saline): 62 % of control | T/C (dose: 10.0 mg/kg/injection, schedule: Q01DX011 (sc), vehicle: steriod suspending solution): 99 % of control | T/C (dose: 10.0 mg/kg/injection, schedule: Q#A X022 (ip), vehicle: alkali diluted with saline): 64 % of control | T/C (dose: 12.5 mg/kg/injection, schedule: Q01DX011 (ip), vehicle: methylcellulose (MC)): 71 % of control | T/C (dose: 13.25 mg/kg/injection, schedule: Q01DX011 (ip), vehicle: carboxymethylcellulose (CMC)): 120 % of control | T/C (dose: 13.8 mg/kg/injection, schedule: Q01DX011 (ip), vehicle: carboxymethylcellulose (CMC)): 38 % of control | T/C (dose: 15.0 mg/kg/injection, schedule: Q01DX011 (ip), vehicle: methylcellulose (MC)): 49 % of control | T/C (dose: 17.25 mg/kg/injection, schedule: Q01DX011 (ip), vehicle: carboxymethylcellulose (CMC)): 50 % of control and 65 % of control | T/C (dose: 19.0 mg/kg/injection, schedule: Q01DX011 (ip), vehicle: carboxymethylcellulose (CMC)): 56 % of control and 59 % of control | T/C (dose: 20.0 mg/kg/injection, schedule: Q01DX006 (iv), vehicle: alkali diluted with saline): 91 % of control | T/C (dose: 20.0 mg/kg/injection, schedule: Q01DX011 (im), vehicle: alkali diluted with saline): 76 % of control | T/C (dose: 20.0 mg/kg/injection, schedule: Q01DX011 (oral), vehicle: alkali diluted with saline): 63 % of control | T/C (dose: 20.0 mg/kg/injection, schedule: Q01DX011 (sc), vehicle: steriod suspending solution): 48 % of control | T/C (dose: 23.0 mg/kg/injection, schedule: Q01DX011 (ip), vehicle: carboxymethylcellulose (CMC)): 31 % of control | T/C (dose: 25.0 mg/kg/injection, schedule: Q01DX011 (ip), vehicle: methylcellulose (MC)): 47 % of control | T/C (dose: 26.5 mg/kg/injection, schedule: Q01DX011 (ip), vehicle: carboxymethylcellulose (CMC)): 50 % of control | T/C (dose: 30.0 mg/kg/injection, schedule: Q01DX011 (ip), vehicle: methylcellulose (MC)): 33 % of control | T/C (dose: 30.0 mg/kg/injection, schedule: Q03DX004 (ip), vehicle: alkali diluted with saline): 117 % of control | T/C (dose: 34.5 mg/kg/injection, schedule: Q01DX011 (ip), vehicle: carboxymethylcellulose (CMC)): 12 % of control and 13 % of control | T/C (dose: 38.0 mg/kg/injection, schedule: Q01DX011 (ip), vehicle: carboxymethylcellulose (CMC)): 27 % of control and 32 % of control | T/C (dose: 40.0 mg/kg/injection, schedule: Q01DX006 (iv), vehicle: alkali diluted with saline): 95 % of control and 76 % of control | T/C (dose: 40.0 mg/kg/injection, schedule: Q01DX011 (oral), vehicle: alkali diluted with saline): 18 % of control and 42 % of control | T/C (dose: 40.0 mg/kg/injection, schedule: Q01DX011 (sc), vehicle: steriod suspending solution): 48 % of control | T/C (dose: 40.0 mg/kg/injection, schedule: Q#A X022 (ip), vehicle: alkali diluted with saline): 22 % of control and 36 % of control | T/C (dose: 50.0 mg/kg/injection, schedule: Q01DX001 (ip), vehicle: alkali diluted with saline): 88 % of control | T/C (dose: 50.0 mg/kg/injection, schedule: Q01DX011 (ip), vehicle: methylcellulose (MC)): 13 % of control | T/C (dose: 60.0 mg/kg/injection, schedule: Q01DX011 (ip), vehicle: methylcellulose (MC)): 6 % of control | T/C (dose: 60.0 mg/kg/injection, schedule: Q03DX004 (ip), vehicle: alkali diluted with saline): 47 % of control | T/C (dose: 80.0 mg/kg/injection, schedule: Q01DX006 (iv), vehicle: alkali diluted with saline): 92 % of control and 93 % of control | T/C (dose: 80.0 mg/kg/injection, schedule: Q01DX011 (im), vehicle: alkali diluted with saline): 4 % of control and 9 % of control | T/C (dose: 80.0 mg/kg/injection, schedule: Q01DX011 (ip), vehicle: alkali diluted with saline): 9 % of control and 21 % of control | T/C (dose: 100.0 mg/kg/injection, schedule: Q01DX001 (ip), vehicle: alkali diluted with saline): 63 % of control | T/C (dose: 120.0 mg/kg/injection, schedule: Q03DX004 (ip), vehicle: alkali diluted with saline): 41 % of control | T/C (dose: 160.0 mg/kg/injection, schedule: Q01DX006 (iv), vehicle: alkali diluted with saline): 24 % of control | T/C (dose: 200.0 mg/kg/injection, schedule: Q01DX001 (ip), vehicle: alkali diluted with saline): 186 % of control | T/C (dose: 400.0 mg/kg/injection, schedule: Q01DX001 (ip), vehicle: alkali diluted with saline): 89 % of control

CC1CCC(n2cnc3c(N)ncnc32)O1 (stereo not drawn)
T/C [1]: 108 % of control | T/C (dose: 60.0 mg/kg/injection, schedule: Q01DX011 (ip), vehicle: saline): 119 % of control | T/C [2]: 66 % of control | T/C [3]: 25 % of control

C[C@]12CCC(=O)C=C1CC[C@@H]1[C@@H]2[C@@H](O)C[C@]2(C)C(=O)CC[C@@H]12
T/C (dose: 100.0 mg/kg/injection, schedule: Q01DX011 (sc), vehicle: steriod suspending solution): 107 % of control | T/C (dose: 200.0 mg/kg/injection, schedule: Q01DX011 (sc), vehicle: steriod suspending solution): 83 % of control

c1nc([N+]23CCC(CC2)CC3)c2[nH]cnc2n1
T/C (dose: 12.5 mg/kg/injection, schedule: Q01DX011 (ip), vehicle: saline): 101 % of control | T/C (dose: 20.0 mg/kg/injection, schedule: Q01DX011 (ip), vehicle: saline): 98 % of control | T/C (dose: 25.0 mg/kg/injection, schedule: Q01DX011 (ip), vehicle: saline): 56 % of control | T/C [1]: 50 % of control | T/C (dose: 40.0 mg/kg/injection, schedule: Q01DX011 (ip), vehicle: saline): 41 % of control | T/C (dose: 50.0 mg/kg/injection, schedule: Q01DX011 (ip), vehicle: saline): 19 % of control and 29 % of control

NC(=O)c1n[nH]nc1N=Nc1c(O)ccc2ccccc12
T/C (dose: 16.0 mg/kg/injection, schedule: Q01DX011 (ip), vehicle: carboxymethylcellulose (CMC)): 85 % of control | T/C (dose: 31.0 mg/kg/injection, schedule: Q01DX011 (ip), vehicle: carboxymethylcellulose (CMC)): 120 % of control | T/C (dose: 62.0 mg/kg/injection, schedule: Q01DX011 (ip), vehicle: carboxymethylcellulose (CMC)): 204 % of control

COC(=O)c1cc(=O)[nH]c(N)n1
T/C (dose: 15.0 mg/kg/injection, schedule: Q01DX011 (ip), vehicle: saline): 101 % of control | T/C (dose: 31.0 mg/kg/injection, schedule: Q01DX011 (ip), vehicle: saline): 150 % of control | T/C (dose: 62.0 mg/kg/injection, schedule: Q01DX011 (ip), vehicle: saline): 97 % of control | T/C (dose: 125.0 mg/kg/injection, schedule: Q01DX011 (ip), vehicle: saline): 81 % of control | T/C (dose: 250.0 mg/kg/injection, schedule: Q01DX011 (ip), vehicle: saline): 113 % of control

Cn1cnc2c(ncn2C2OC(CO)C(O)C2O)c1=N (stereo not drawn)
T/C [1]: 118 % of control | T/C [2]: 47 % of control | T/C [3]: 74 % of control
